The target of one test is T1, MASP-2 (CCP1-CCP2-SP) (Homo sapiens, UniProt O00187).
T1 construct: 15 μL of Enzyme MASP-2 (CCP1-CCP2-SP) in Assay Buffer
The experiment in a line: Enzymatic assay for MASP-2 inhibitory activity (fluorogenic substrate). It is filed as biochemical. The gist of the method: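 Fluorescence was normalized between no-enzyme and DMSO-only controls to derive % activity, with IC50 taken as equivalent to Ki except for tight-binding inhibitors. Reactions ran 20 min at room temperature in HEPES pH 7.4/NaCl/Tween 20 buffer, using the C2-derived fluorogenic substrate, before acetic acid stop.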

Another test addresses T2, human α-thrombin (Homo sapiens, UniProt P00734).
T2 construct: enzyme (human α-thrombin (BioPharm® Lab.)) in assay buffer; purchased BioPharm® Lab
The experiment in a line: Enzymatic assay for thrombin (fluorogenic peptide substrate Boc-VPR-AMC). It is filed as biochemical. In short, it runs like this:
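Assay conditions kept the reaction linear in time, enzyme and substrate, so IC50 approximated Ki apart from tight- or slow-binding cases. Boc-VPR-AMC cleavage by human α-thrombin proceeded 20 min at room temperature in Hepes pH 7.4/NaCl/Tween 20 buffer, then was acid-quenched and read by fluorescence.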

The structures appear in SMILES notation. Counter-ions that a name gives are not always drawn.

T1 sequence (O00187 445-686 limits assumed): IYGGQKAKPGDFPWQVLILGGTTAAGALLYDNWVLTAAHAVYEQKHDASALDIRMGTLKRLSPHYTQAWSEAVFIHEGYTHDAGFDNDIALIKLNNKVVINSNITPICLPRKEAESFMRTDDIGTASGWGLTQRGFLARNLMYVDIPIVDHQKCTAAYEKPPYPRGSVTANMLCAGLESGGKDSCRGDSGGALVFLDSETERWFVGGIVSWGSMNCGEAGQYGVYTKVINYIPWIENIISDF
T1 sequence (O00187 287-444 partner limits assumed): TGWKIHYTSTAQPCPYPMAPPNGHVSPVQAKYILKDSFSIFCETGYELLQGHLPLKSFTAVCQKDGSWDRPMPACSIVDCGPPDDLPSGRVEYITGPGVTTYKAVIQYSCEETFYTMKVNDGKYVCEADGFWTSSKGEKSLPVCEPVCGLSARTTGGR

As a reminder, the Ki is the equilibrium dissociation constant of an inhibitor or competing ligand from its target. Read a low Ki as a stronger hold on the target. Regarding `Cc1cc(F)cc(CNc2ncc3n(c2=O)[C@H](C(=O)NCc2ccc(N)c(F)c2)CC3)c1` [Compound 184, (S)-N-(4-amino-3-fluorobenzyl)-3-((3-fluoro-5-methylbenzyl)amino)-4-oxo-4,6,7,8-tetrahydropyrrolo[1,2-a]pyrazine-6-carboxamide], the inhibitory constant (Ki) on MASP-2 (CCP1-CCP2-SP) and at human α-thrombin was 500 to 2500 nM each time.
As for `Cc1cc(F)cc(CNc2ncc3n(c2=O)[C@H](C(=O)NC(C#N)c2cccc(Cl)c2)CC3)c1` (stereo partly drawn) [Compound 185, (6S)-N-((3-chlorophenyl)(cyano)methyl)-3-((3-fluoro-5-methylbenzyl)amino)-4-oxo-4,6,7,8-tetrahydropyrrolo[1,2-a]pyrazine-6-carboxamide], the inhibition constant (Ki) on MASP-2 (CCP1-CCP2-SP) and on human α-thrombin was 2500 to 10000 nM each time.
`Cc1cc(C)cc(CNc2ncc3n(c2=O)[C@H](C(=O)N[C@@H]2CCc4nc(N)ccc42)CC3)c1` [Compound 186, (S)-N-((R)-2-amino-6,7-dihydro-5H-cyclopenta[b]pyridin-5-yl)-3-((3,5-dimethylbenzyl)amino)-4-oxo-4,6,7,8-tetrahydropyrrolo[1,2-a]pyrazine-6-carboxamide]: the Ki at MASP-2 (CCP1-CCP2-SP) and at human α-thrombin was less than 500 nM in each case.
Turning to `Cc1cccc(CNc2ncc3n(c2=O)[C@H](C(=O)N[C@H](C)c2ccc(N)nc2)CC3)c1` [Compound 187, (S)-N-((R)-1-(6-aminopyridin-3-yl)ethyl)-3-((3-methylbenzyl)amino)-4-oxo-4,6,7,8-tetrahydropyrrolo[1,2-a]pyrazine-6-carboxamide], the Ki at MASP-2 (CCP1-CCP2-SP) is less than 500 nM; at human α-thrombin, 2500 to 10000 nM.
As to `Cc1cc(F)cc(CNc2ncc3n(c2=O)[C@H](C(=O)NCc2ccc(N)c(Cl)c2)CC3)c1` [Compound 188, (S)-N-(4-amino-3-chlorobenzyl)-3-((3-fluoro-5-methylbenzyl)amino)-4-oxo-4,6,7,8-tetrahydropyrrolo[1,2-a]pyrazine-6-carboxamide], the Ki at MASP-2 (CCP1-CCP2-SP) and on human α-thrombin was less than 500 nM each time.
Regarding `Cc1cc(C)cc(CNc2ncc3n(c2=O)[C@H](C(=O)NCc2cnc(N)c(Cl)c2)CC3)c1` [Compound 189, (S)-N-((6-amino-5-chloropyridin-3-yl)methyl)-3-((3,5-dimethylbenzyl)amino)-4-oxo-4,6,7,8-tetrahydropyrrolo[1,2-a]pyrazine-6-carboxamide], the Ki on MASP-2 (CCP1-CCP2-SP) is less than 500 nM; at human α-thrombin, 500 to 2500 nM.
As to `Cc1cc(F)cc(CNc2ncc3n(c2=O)[C@H](C(=O)N[C@H](C)c2ccc(N)nc2)CC3)c1` [Compound 191, (S)-N-((R)-1-(6-aminopyridin-3-yl)ethyl)-3-((3-fluoro-5-methylbenzyl)amino)-4-oxo-4,6,7,8-tetrahydropyrrolo[1,2-a]pyrazine-6-carboxamide trifluoroacetate], the figures for the Ki on MASP-2 (CCP1-CCP2-SP) and on human α-thrombin were less than 500 nM and 2500 to 10000 nM, respectively.
Take `Cc1cc(F)cc(CNc2ncc3n(c2=O)[C@H](C(=O)NCc2cnc(N)c(Cl)c2)CC3)c1` [Compound 192, (S)-N-((6-amino-5-chloropyridin-3-yl)methyl)-3-((3-fluoro-5-methylbenzyl)amino)-4-oxo-4,6,7,8-tetrahydropyrrolo[1,2-a]pyrazine-6-carboxamide trifluoroacetate]: the Ki is less than 500 nM at MASP-2 (CCP1-CCP2-SP) and 500 to 2500 nM at human α-thrombin.
Regarding `Cc1ccc(C)c(CNc2ncc3n(c2=O)[C@H](C(=O)N[C@H](C)c2ccc(N)nc2)CC3)c1` [Compound 193, (S)-N-((R)-1-(6-aminopyridin-3-yl)ethyl)-3-((2,5-dimethylbenzyl)amino)-4-oxo-4,6,7,8-tetrahydropyrrolo[1,2-a]pyrazine-6-carboxamide trifluoroacetate], the Ki on MASP-2 (CCP1-CCP2-SP) is less than 500 nM; on human α-thrombin, 2500 to 10000 nM.
On to `CCc1cccc(CNc2ncc3n(c2=O)[C@H](C(=O)N[C@H](C)c2ccc(N)nc2)CC3)c1` [Compound 195, (S)-N-((R)-1-(6-aminopyridin-3-yl)ethyl)-3-((3-ethylbenzyl)amino)-4-oxo-4,6,7,8-tetrahydropyrrolo[1,2-a]pyrazine-6-carboxamide trifluoroacetate], for which the values for the Ki at MASP-2 (CCP1-CCP2-SP) and at human α-thrombin were less than 500 nM and 2500 to 10000 nM, respectively.
For the compound `Cc1ccc(F)cc1CNc1ncc2n(c1=O)[C@H](C(=O)N[C@H](C)c1ccc(N)nc1)CC2` [Compound 196, (S)-N-((R)-1-(6-aminopyridin-3-yl)ethyl)-3-((5-fluoro-2-methylbenzyl)amino)-4-oxo-4,6,7,8-tetrahydropyrrolo[1,2-a]pyrazine-6-carboxamide trifluoroacetate], the Ki at MASP-2 (CCP1-CCP2-SP) is less than 500 nM; at human α-thrombin, 10000 to 25000 nM.
The matching figures for `Cc1cc(C)cc(CNc2ncc3n(c2=O)[C@H](C(=O)N[C@H](C)c2ccc(N)nc2)CC3)c1` [Compound 198, (S)-N-((R)-1-(6-aminopyridin-3-yl)ethyl)-3-((3,5-dimethylbenzyl)amino)-4-oxo-4,6,7,8-tetrahydropyrrolo[1,2-a]pyrazine-6-carboxamide trifluoroacetate]: less than 500 nM and 2500 to 10000 nM.
As to `Cc1ccc(F)c(CNc2ncc3n(c2=O)[C@H](C(=O)N[C@H](C)c2ccc(N)nc2)CC3)c1` [Compound 199, (S)-N-((R)-1-(6-aminopyridin-3-yl)ethyl)-3-((2-fluoro-5-methylbenzyl)amino)-4-oxo-4,6,7,8-tetrahydropyrrolo[1,2-a]pyrazine-6-carboxamide trifluoroacetate], the Ki at MASP-2 (CCP1-CCP2-SP) was less than 500 nM; at human α-thrombin, 2500 to 10000 nM.
Take `COc1cc(F)cc(CNc2ncc3n(c2=O)[C@H](C(=O)N[C@H](C)c2ccc(N)nc2)CC3)c1` [Compound 200, (S)-N-((R)-1-(6-aminopyridin-3-yl)ethyl)-3-((3-fluoro-5-methoxybenzyl)amino)-4-oxo-4,6,7,8-tetrahydropyrrolo[1,2-a]pyrazine-6-carboxamide trifluoroacetate]: the Ki was less than 500 nM on MASP-2 (CCP1-CCP2-SP) and 2500 to 10000 nM at human α-thrombin.
In the case of `C[C@@H](NC(=O)[C@@H]1CCc2cnc(NCc3cccc(-c4ccccc4)c3)c(=O)n21)c1ccc(N)nc1` [Compound 201, (S)-3-(([1,1′-biphenyl]-3-ylmethyl)amino)-N-((R)-1-(6-aminopyridin-3-yl)ethyl)-4-oxo-4,6,7,8-tetrahydropyrrolo[1,2-a]pyrazine-6-carboxamide], the inhibition constant Ki was less than 500 nM on MASP-2 (CCP1-CCP2-SP) and more than 25000 nM at human α-thrombin.
As to `Cc1ccccc1CNc1ncc2n(c1=O)[C@H](C(=O)N[C@H](C)c1ccc(N)nc1)CC2` [Compound 202, (S)-N-((R)-1-(6-aminopyridin-3-yl)ethyl)-3-((2-methylbenzyl)amino)-4-oxo-4,6,7,8-tetrahydropyrrolo[1,2-a]pyrazine-6-carboxamide], the values for the inhibition constant Ki at MASP-2 (CCP1-CCP2-SP) and on human α-thrombin were less than 500 nM and 10000 to 25000 nM, respectively.
For `Cc1cc(CNc2ncc3n(c2=O)[C@H](C(=O)N[C@H](C)c2ccc(N)nc2)CC3)cc(C(F)(F)F)c1` [Compound 203, (S)-N-((R)-1-(6-aminopyridin-3-yl)ethyl)-3-((3-methyl-5-(trifluoromethyl)benzyl)amino)-4-oxo-4,6,7,8-tetrahydropyrrolo[1,2-a]pyrazine-6-carboxamide], the inhibitory constant (Ki) was less than 500 nM on MASP-2 (CCP1-CCP2-SP) and 2500 to 10000 nM at human α-thrombin.
As to `Cc1cc(F)cc(CNc2ncc3n(c2=O)[C@H](C(=O)NCc2cnc4ccccn24)CC3)c1` [Compound 204, trifluoroacetate], the inhibition constant (Ki) on MASP-2 (CCP1-CCP2-SP) was 2500 to 10000 nM; on human α-thrombin, more than 25000 nM.
The matching figures for `Cc1cc(F)cc(CNc2ncc3n(c2=O)[C@H](C(=O)NCc2ccc(CN)cc2C)CC3)c1` [Compound 205, (S)—N-(4-(aminomethyl)-2-methylbenzyl)-3-((3-fluoro-5-methylbenzyl)amino)-4-oxo-4,6,7,8-tetrahydropyrrolo[1,2-a]pyrazine-6-carboxamide trifluoroacetate]: less than 500 nM and 2500 to 10000 nM.
With `Cc1cc(F)cc(CNc2ncc3n(c2=O)[C@H](C(=O)NCc2c(C)cc(CN)cc2C)CC3)c1` [Compound 206, trifluoroacetate], the figures for the Ki on MASP-2 (CCP1-CCP2-SP) and at human α-thrombin were 500 to 2500 nM and 10000 to 25000 nM, respectively.
As to `CC(C)c1cccc(CNc2ncc3n(c2=O)[C@H](C(=O)NCc2ccc(N)nc2)CC3)c1` [Compound 207, (S)—N-((6-aminopyridin-3-yl)methyl)-3-((3-isopropylbenzyl)amino)-4-oxo-4,6,7,8-tetrahydropyrrolo[1,2-a]pyrazine-6-carboxamide trifluoroacetate], the Ki on MASP-2 (CCP1-CCP2-SP) and at human α-thrombin was less than 500 nM throughout.
As to `Cc1nc(N)ccc1CNC(=O)[C@@H]1CCc2cnc(NCc3cccc(C(C)C)c3)c(=O)n21` [Compound 208], the inhibitory constant (Ki) on MASP-2 (CCP1-CCP2-SP) and at human α-thrombin was less than 500 nM in each case.
As to `Cc1cc(F)cc(CNc2nc(-c3ccnn3C)c3n(c2=O)[C@H](C(=O)NCc2cc4c(s2)CNC4)CC3)c1` [Compound 209, (S)—N-((5,6-dihydro-4H-thieno[2,3-c]pyrrol-2-yl)methyl)-3-((3-fluoro-5-methylbenzyl)amino)-1-(1-methyl-1H-pyrazol-5-yl)-4-oxo-4,6,7,8-tetrahydropyrrolo[1,2-a]pyrazine-6-carboxamide trifluoroacetate], the Ki at MASP-2 (CCP1-CCP2-SP) is less than 500 nM; on human α-thrombin, 2500 to 10000 nM.
The corresponding values for `Cc1cc(F)cc(CNc2nc(C3CC3)c3n(c2=O)[C@H](C(=O)NCc2ccc(N)nc2C)CC3)c1` [Compound 210, (S)—N-((6-amino-2-methylpyridin-3-yl)methyl)-1-cyclopropyl-3-((3-fluoro-5-methylbenzyl)amino)-4-oxo-4,6,7,8-tetrahydropyrrolo[1,2-a]pyrazine-6-carboxamide trifluoroacetate] are less than 500 nM and 500 to 2500 nM.

For the origin of these results see patent US20250122225A1, “MASP-2 INHIBITORS AND METHODS OF USE” (Omeros Corporation, priority 2023, published 2025).
